For 16 compounds, IC50 results are on record in patent publication US8513276B2, “Imidazo[1,2-a]pyridine compounds for use in treating cancer” (Astex Therapeutics Limited, priority 2006, dated 2013).

The target of assay [1] is T1, FGFR3 (Homo sapiens, UniProt P22607).
T1 construct: Enzymes (from Upstate) were prepared at 2× final concentration in 1× kinase assay buffer; purchased Upstate
The assay is described as follows: FGFR3 in vitro kinase inhibitory activity assay (TRF). The format is biochemical. The protocol:
Enzymes (from Upstate) were prepared at 2× final concentration in 1× kinase assay buffer (as described below). Enzymes were then incubated with test compounds, biotinylated Flt3 substrate (biotin—DNEYFYV) (Cell Signalling Technology Inc.) and ATP. The reaction was allowed to proceed for 3 hours (FGFR3) or 2.5 hrs (PDGFR-beta) at room temperature on a plate shaker at 900 rpm before being stopped with 20 μl of 35 mM EDTA, pH 8 (FGFR3) or 55 mM EDTA, pH 8 (PDGFR-beta). Twenty μl of 5× detection mix (50 mM HEPES pH 7.5, 0.1% BSA, 2 nM Eu-anti-pY (PY20) (PerkinElmer) 15 nM SA-XL665 (Cisbio) for FGFR3 and 50 mM HEPES, pH 7.5, 0.5 M KF, 0.1% BSA, 11.34 nM Eu-anti-pY (PT66) (PerkinEimer), 94 nM SA-XL665 (Cisbio) for PDGFR-beta) was then added to each well and the plate sealed and incubated at room temperature for one hour on a plate shaker at 900 rpm. The plate was then read on a Packard Fusion plate reader in TRF mode.
Kinase Assay buffers were:
A: 50 mM HEPES pH 7.5, 6 mM MnCl2, 1 mM DTT, 0.1% TritonX-100

Assay [2] concerns LP-1 cell line. The assay is described as follows: Cell-based pERK ELISA in LP-1 multiple myeloma cells. To be noted: Homo sapiens. As to the method:
LP-1 or JIM-1 multiple myeloma cells were seeded in 96 well plates at 1×10^6 cells/ml in 200 μl per well in serum free media. HUVEC cells were seeded at 2.5×10^5 cells/ml and allowed to recover for 24 h prior to transfer to serum free media. Cells were incubated for 16 h at 37° C. prior to the addition of a test compound for 30 minutes. Test compounds were administered at a 0.1% final DMSO concentration. Following this 30 minute incubation a FGF-1/Heparin (FGF-1 at 100 ng/ml final and Heparin at 100 ug/ml) mixture or VEGF^165 ([…]) was added to each of the wells for a further 5 minutes. The media was removed and 50 ul ERK ELISA lysis buffer (R and D Systems DuoSet ELISA for pERK and Total ERK #DYC-1940E, DYC-1018E) added. ELISA plates and standards were prepared according to the standard DuoSet protocols and the relative amounts of pERK to total ERK in each sample calculated according to the standard curve.
In particular, compounds of the invention were tested against the LP-1 cell line (DSMZ no.: ACC 41) derived from human multiple myeloma.

Where [3] appears, read: given as a bound, read-out: IC50 in the FGFR3 assay.
Setting [4] is: in vitro kinase assay, 8 μM ATP, read-out: FGFR3 IC50.
Where [5] appears, read: LP-1 cell line, given as a bound, read-out: IC50 in LP-1 pERK ELISA.
[6] abbreviates: LP-1 cells, FGF-1/heparin stimulation, pERK relative to total ERK, read-out: LP-1 pERK ELISA.

Structures can show the parent of a compound that is named as a salt. Where two headings read alike, the source gives them in different places. Some results are limits rather than exact numbers.

T1 sequence (P22607 23-806): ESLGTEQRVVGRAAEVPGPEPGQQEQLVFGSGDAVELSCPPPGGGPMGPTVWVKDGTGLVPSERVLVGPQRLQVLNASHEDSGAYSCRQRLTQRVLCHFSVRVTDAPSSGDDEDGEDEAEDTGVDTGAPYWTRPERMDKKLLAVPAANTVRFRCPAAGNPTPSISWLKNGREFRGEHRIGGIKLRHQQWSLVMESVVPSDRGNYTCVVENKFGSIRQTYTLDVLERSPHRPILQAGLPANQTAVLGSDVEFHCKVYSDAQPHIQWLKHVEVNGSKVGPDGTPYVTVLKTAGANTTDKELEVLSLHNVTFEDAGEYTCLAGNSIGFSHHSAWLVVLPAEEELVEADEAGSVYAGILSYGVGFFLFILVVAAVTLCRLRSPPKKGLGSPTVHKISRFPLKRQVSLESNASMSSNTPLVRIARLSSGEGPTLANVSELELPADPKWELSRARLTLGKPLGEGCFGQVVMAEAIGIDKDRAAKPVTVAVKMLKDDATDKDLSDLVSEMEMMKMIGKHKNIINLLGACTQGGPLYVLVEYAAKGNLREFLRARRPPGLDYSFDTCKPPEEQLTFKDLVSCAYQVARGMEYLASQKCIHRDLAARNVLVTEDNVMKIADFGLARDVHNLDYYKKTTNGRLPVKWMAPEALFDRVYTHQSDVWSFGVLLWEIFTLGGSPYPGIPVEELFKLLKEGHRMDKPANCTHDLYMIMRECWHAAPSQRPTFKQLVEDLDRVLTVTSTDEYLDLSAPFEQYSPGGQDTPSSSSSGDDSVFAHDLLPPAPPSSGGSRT

In the case of `Nc1ccc(-c2cnc3c(-c4cccc(Nc5nncs5)c4)cnn3c2)cn1` [Example 11, 5-{3-[3-([1,3,4]Thiadiazol-2-ylamino)-phenyl]-pyrazolo[1,5-a]pyrimidin-6-yl}-pyridin-2-ylamine hydrochloride salt], the IC50 was < 1 µM in assay [1] (setting [3]), 0.00603 µM in assay [1] (setting [4]), < 1 µM in assay [2] (setting [5]) and 0.04 µM in assay [2] (setting [6]).
Take `Fc1ccc(-c2ccc3c(-c4cccc(Nc5nncs5)c4)cnn3c2)cc1` [Example 12, {3-[6-(4-Fluoro-phenyl)-pyrazolo[1,5-a]pyridin-3-yl]-phenyl}-[1,3,4]thiadiazol-2-yl-amine]: the IC50 in assay [1] (setting [3]) and in assay [2] (setting [5]) was < 1 µM each time.
Take `O=C(O)Cc1cccc(-c2ccn3c(-c4cccc(NCc5ccccc5)c4)cnc3c2)c1` [Example 13, {3-[3-(3-Benzylamino-phenyl)-imidazo[1,2-a]pyridin-7-yl]-phenyl}-acetic acid]: the IC50 in assay [1] (setting [3]) and in assay [2] (setting [5]) was < 1 µM each time.
With `Cn1cc(-c2ccn3c(-c4cccc(Nc5nncs5)c4)cnc3c2)cn1` [Example 14, {3-[7-(1-Methyl-1H-pyrazol-4-yl)-imidazo[1,2-a]pyridin-3-yl]-phenyl}-[1,3,4]thiadiazol-2-yl-amine], the IC50 was < 1 µM in assay [1] (setting [3]), 0.016 µM in assay [1] (setting [4]), < 1 µM in assay [2] (setting [5]) and 0.0085 µM in assay [2] (setting [6]).
In the case of `Cn1cc(-c2cnc3c(-c4cccc(Nc5nncs5)c4)cnn3c2)cn1` [Example 16, {3-[6-(1-Methyl-1H-pyrazol-4-yl)-pyrazolo[1,5-a]pyrimidin-3-yl]-phenyl}-[1,3,4]thiadiazol-2-yl-amine], the IC50 in assay [1] (setting [3]) and in assay [2] (setting [5]) was < 1 µM throughout.
Take `c1cc(Nc2nncs2)cc(-c2cnn3cc(-c4ccncc4)cnc23)c1` [Example 17, [3-(6-Pyridin-4-yl-pyrazolo[1,5-a]pyrimidin-3-yl)-phenyl]-[1,3,4]thiadiazol-2-yl-amine]: the IC50 in assay [1] (setting [3]) and in assay [2] (setting [5]) was < 1 µM each time.
On to `c1cc(Nc2nncs2)cc(-c2cnn3cc(-c4cnccn4)cnc23)c1` [Example 18, [3-(6-Pyrazin-2-yl-pyrazolo[1,5-a]pyrimidin-3-yl)-phenyl]-[1,3,4]thiadiazol-2-yl-amine], for which the IC50 in assay [1] (setting [3]) and in assay [2] (setting [5]) was < 1 µM in each case.
In the case of `c1cc(Nc2nncs2)cc(-c2cnc3cc(-c4ccc5c(c4)OCO5)ccn23)c1` [Example 20, [3-(7-Benzo[1,3]dioxol-5-yl-imidazo[1,2-a]pyridin-3-yl)-phenyl]-[1,3,4]thiadiazol-2-yl-amine Formate], the IC50 in assay [1] (setting [3]) and in assay [2] (setting [5]) was < 1 µM throughout.
With `c1cc(Nc2nncs2)cc(-c2cnc3cc(N4CCCCC4)ccn23)c1` [Example 24, [3-(7-Piperidin-1-yl-imidazo[1,2-a]pyridin-3-yl)-phenyl]-[1,3,4]thiadiazol-2-yl-amine], the IC50 in assay [1] (setting [3]) and in assay [2] (setting [5]) was < 1 µM each time.
Consider `Fc1ccc(-c2cnc3c(-c4cncc(Nc5nncs5)c4)cnn3c2)cc1` [Example 25, {5-[6-(4-Fluoro-phenyl)-pyrazolo[1,5-a]pyrimidin-3-yl]-pyridin-3-yl}-[1,3,4]thiadiazol-2-yl-amine], for which the IC50 in assay [1] (setting [3]) and in assay [2] (setting [5]) was < 1 µM each time.
On to `CNC(=O)Cc1cccc(-c2ccn3c(-c4cccc(Nc5nncs5)c4)cnc3c2)c1` [Example 26, N-Methyl-2-(3-{3-[3-([1,3,4]thiadiazol-2-ylamino)-phenyl]-imidazo[1,2-a]pyridin-7-yl}-phenyl)-acetamide Hydrochloride], for which the IC50 in assay [1] (setting [3]) and in assay [2] (setting [5]) was < 1 µM throughout.
Consider `O=C1CN(Cc2cccc(-c3ccn4c(-c5cccc(Nc6nncs6)c5)cnc4c3)c2)CCN1` [Example 28, 4-(3-{3-[3-([1,3,4]Thiadiazol-2-ylamino)-phenyl]-imidazo[1,2-a]pyridin-7-yl}-benzyl)-piperazin-2-one Formate], for which the IC50 in assay [1] (setting [3]) and in assay [2] (setting [5]) was < 1 µM in each case.
As for `CNC(=O)c1cccc(-c2ccn3c(-c4cccc(Nc5nncs5)c4)cnc3c2)c1` [Example 30, N-Methyl-3-{3-[3-([1,3,4]thiadiazol-2-ylamino)-phenyl]-imidazo[1,2-a]pyridin-7-yl}-benzamide Hydrochloride], the IC50 in assay [1] (setting [3]) and in assay [2] (setting [5]) was < 1 µM in each case.
For the compound `Nc1cccc(-c2ccn3c(-c4cccc(Nc5nncs5)c4)cnc3c2)c1` [Example 32, {3-[7-(3-Amino-phenyl)-imidazo[1,2-a]pyridin-3-yl]-phenyl}-[1,3,4]thiadiazol-2-yl-amine Hydrochloride], the IC50 in assay [1] (setting [3]) and in assay [2] (setting [5]) was < 1 µM throughout.
Consider `Cn1nnc(-c2ccn3c(-c4cccc(Nc5nncs5)c4)cnc3c2)n1` [Example 43, {3-[7-(2-Methyl-2H-tetrazol-5-yl)-imidazo[1,2-a]pyridin-3-yl]phenyl}-[1,3,4]thiadiazol-2-yl-amine], for which the IC50 in assay [1] (setting [3]) was < 1 µM; in assay [1] (setting [4]), 0.0339 µM; in assay [2] (setting [5]) it was < 1 µM; in assay [2] (setting [6]), 0.14 µM.
Regarding `Clc1ccn2c(-c3cccc(Nc4nncs4)c3)cnc2c1` [the starting material of Procedure A4c, [3-(7-Chloro-imidazo[1,2-a]pyridin-3-yl)-phenyl]-[1,3,4]thiadiazol-2-yl-amine], the IC50 in assay [1] (setting [3]) and in assay [2] (setting [5]) was < 1 µM each time.
